Measurements published in patent US20130102595A1 (Curis, Inc., priority 2011, published 2013).

Assays:
[1] = system: HDACs (HeLa cell nuclear extracts); assay: HDAC enzymatic activity, Biomol Color de Lys system; assay type: biochemical; details: 1 hour, 25° C.
Experimental: (E) an In Vitro Assay which Determines the Ability of a Test Compound to Inhibit HDAC Enzymatic Activity.
HDAC inhibitory activity was assessed using the Biomol Color de Lys system (AK-500, Biomol, Plymouth Meeting, Pa.). Briefly, HeLa cell nuclear extracts were used as a source of HDACs. Different concentrations of test compounds were serially diluted in dimethylsulphoxide (DMSO) and added to HeLa cell nuclear extracts in the presence of a colorimetric artificial substrate. Final assay condition contained 50 mM Tris/Cl, pH 8.0, 137 mM NaCl, 2.7 mM KCl and 1 mM MgCl2. Reactions were carried in room temperature (25° C.) for 1 hour before addition of developer for termination. Relative enzyme activity was measured in the WALLAC Victor II 1420 microplate reader as fluorescence intensity (excitation: 350-380 nm; emission: 440-460 nm). Data were analyzed using GraphPad Prism (v4.0a) with a sigmoidal dose response curve fitting for IC50 calculation.

PI3Kα (p110α/p85α) = biological target: T1, PI3Kα (p110α/p85α) (Homo sapiens, UniProt P42336); assay: PI3Kα ADP-Glo assay; assay type: biochemical; details: 20 μM PIP2, 10 μM ATP, 30 minutes
T1 construct: GST (N); made in house; host or cells: Baculovirus-infected Sf9 cells
T1 sequence (P42336 whole entry): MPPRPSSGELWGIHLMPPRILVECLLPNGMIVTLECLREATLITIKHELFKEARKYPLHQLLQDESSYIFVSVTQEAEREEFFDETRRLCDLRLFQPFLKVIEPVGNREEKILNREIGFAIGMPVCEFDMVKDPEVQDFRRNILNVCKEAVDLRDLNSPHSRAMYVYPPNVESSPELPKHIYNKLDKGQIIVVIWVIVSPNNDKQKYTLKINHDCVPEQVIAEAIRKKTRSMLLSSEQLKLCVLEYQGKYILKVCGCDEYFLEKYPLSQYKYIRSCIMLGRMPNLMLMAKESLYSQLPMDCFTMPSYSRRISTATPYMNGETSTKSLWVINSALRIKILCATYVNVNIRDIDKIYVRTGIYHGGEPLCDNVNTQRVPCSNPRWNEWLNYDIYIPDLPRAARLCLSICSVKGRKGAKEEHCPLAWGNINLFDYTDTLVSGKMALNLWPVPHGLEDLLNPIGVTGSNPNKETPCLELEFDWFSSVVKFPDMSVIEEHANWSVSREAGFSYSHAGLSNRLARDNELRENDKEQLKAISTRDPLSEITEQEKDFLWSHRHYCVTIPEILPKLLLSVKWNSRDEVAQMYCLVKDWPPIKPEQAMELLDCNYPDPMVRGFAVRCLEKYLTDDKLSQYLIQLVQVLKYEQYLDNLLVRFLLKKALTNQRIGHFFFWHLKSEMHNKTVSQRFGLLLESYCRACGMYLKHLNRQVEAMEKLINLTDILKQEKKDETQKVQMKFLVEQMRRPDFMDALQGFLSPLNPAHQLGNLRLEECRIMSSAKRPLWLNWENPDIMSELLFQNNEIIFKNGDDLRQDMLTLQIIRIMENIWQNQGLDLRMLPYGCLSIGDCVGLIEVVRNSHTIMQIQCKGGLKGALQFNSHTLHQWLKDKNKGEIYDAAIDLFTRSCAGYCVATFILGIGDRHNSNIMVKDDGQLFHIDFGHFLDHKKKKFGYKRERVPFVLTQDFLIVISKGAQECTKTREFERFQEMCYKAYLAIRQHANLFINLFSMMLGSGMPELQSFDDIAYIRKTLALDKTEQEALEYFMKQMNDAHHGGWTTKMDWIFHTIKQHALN
T1 sequence (P27986 whole entry partner): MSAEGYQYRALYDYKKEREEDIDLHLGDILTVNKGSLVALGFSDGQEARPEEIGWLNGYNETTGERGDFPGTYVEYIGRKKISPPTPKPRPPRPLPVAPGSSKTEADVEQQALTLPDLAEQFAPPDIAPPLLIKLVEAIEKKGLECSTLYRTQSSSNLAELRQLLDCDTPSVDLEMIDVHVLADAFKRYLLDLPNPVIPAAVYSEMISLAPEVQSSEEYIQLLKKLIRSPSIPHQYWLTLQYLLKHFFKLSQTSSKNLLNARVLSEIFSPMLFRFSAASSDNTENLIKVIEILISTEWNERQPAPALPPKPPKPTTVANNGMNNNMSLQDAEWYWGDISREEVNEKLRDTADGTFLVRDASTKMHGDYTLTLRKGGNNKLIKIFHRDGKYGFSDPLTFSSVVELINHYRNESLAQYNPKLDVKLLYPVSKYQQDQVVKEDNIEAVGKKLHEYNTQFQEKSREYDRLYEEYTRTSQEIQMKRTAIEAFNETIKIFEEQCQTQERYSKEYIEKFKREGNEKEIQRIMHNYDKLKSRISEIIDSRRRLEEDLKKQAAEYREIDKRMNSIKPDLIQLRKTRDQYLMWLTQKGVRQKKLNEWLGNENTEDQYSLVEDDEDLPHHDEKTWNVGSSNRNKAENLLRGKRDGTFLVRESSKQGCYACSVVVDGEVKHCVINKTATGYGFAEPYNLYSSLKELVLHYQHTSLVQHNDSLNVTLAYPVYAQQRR
Experimental: (A) an In Vitro Assay which Determines the Ability of a Test Compound to Inhibit PI3Kα.
Activity of PI3Kα was measured using ADP-Glo assay from Promega. PI3Kα, a complex of N-terminal GST-tagged recombinant full-length human p110α (GenBank, Accession No. U79143) and N-terminal His tagged recombinant full length human p85a (GenBank Accession No. XM—043865) were co-expressed in a Baculovirus infected Sf9 cell expression system. The ADP-Glo assay was performed to measure the amount of ADP generated from ATP hydrolysis coupled with PIP2 phosphorylation by the purified recombinant PI3Kα (p110α/p85α). PI3Kα was incubated with 20 μM PIP2 substrate in the reaction buffer (50 mM HEPES, pH 7.4, 150 mM NaCl, 5 mM MgCl2, 1 mM DTT, 3 uM Naorthovanadate, 10 μM ATP and 0.5% DMSO) for 30 minutes at room temperature. The ADP generated was then detected by ADP-Glo assay from Promega, a luminescent ADP detection assay. The ADP-Glo assay is performed in two steps; first, after the kinase reaction, ADP-Glo Reagent is added to terminate the kinase reaction and deplete the remaining ATP. Second, the Kinase Detection Reagent is added to simultaneously convert ADP to ATP and allow the newly synthesized ATP to be measured using a luciferase/luciferin reaction.

SMILES	IC50 [1] [nM]	IC50 (PI3Kα (p110α/p85α)) [nM]
CS(=O)(=O)N1CCN(Cc2cc3nc(-c4cccc5c4cnn5CCCCCCC(=O)NO)nc(N4CCOCC4)c3s2)CC1 [Compound 5, N-hydroxy-7-(4-(6-((4-(methylsulfonyl)piperazin-1-yl)methyl)-4-morpholinothieno[3,2-d]pyrimidin-2-yl)-1H-indazol-1-yl)heptanamide]	< 100	> 10000
O=C(CCCCNc1cc2nc(-c3cccc4[nH]ncc34)nc(N3CCOCC3)c2s1)NO [Compound 18]	< 100	100 to 1000
O=C(CCCCCNc1cc2nc(-c3cccc4[nH]ncc34)nc(N3CCOCC3)c2s1)NO [Compound 19]	< 100	100 to 1000
O=C(CCCCCCNc1cc2nc(-c3cccc4[nH]ncc34)nc(N3CCOCC3)c2s1)NO [Compound 20]	< 100	100 to 1000
CS(=O)(=O)N1CCN(Cc2cc3nc(-c4cccc5[nH]ncc45)nc(NCCCCC(=O)NO)c3s2)CC1 [Compound 34]	–	> 10000
CS(=O)(=O)N1CCN(Cc2cc3nc(-c4cccc5[nH]ncc45)nc(NCCCCCC(=O)NO)c3s2)CC1 [Compound 35]	–	> 10000
CS(=O)(=O)N1CCN(Cc2cc3nc(-c4cccc5[nH]ncc45)nc(NCCCCCCC(=O)NO)c3s2)CC1 [Compound 36]	–	> 10000
O=C(/C=C/c1cc2nc(-c3cccc4[nH]ncc34)nc(N3CCOCC3)c2s1)NO [Compound 46]	1000 to 10000	100 to 1000
O=C(/C=C/c1ccc(S(=O)(=O)Nc2cc3nc(-c4cccc5[nH]ncc45)nc(N4CCOCC4)c3s2)cc1)NO [Compound 50]	< 100	< 100
O=C(NO)c1cnc(N2CCN(S(=O)(=O)c3cc4nc(-c5cccc6[nH]ncc56)nc(N5CCOCC5)c4s3)CC2)nc1 [Compound 51]	100 to 1000	< 100
O=C(NO)c1ccc2c(ccn2Cc2cc3nc(-c4cccc5[nH]ncc45)nc(N4CCOCC4)c3s2)c1 [Compound 105]	100 to 1000	> 10000
Cn1cc(CNc2cc3nc(-c4cccc5[nH]ncc45)nc(N4CCOCC4)c3s2)c2cc(C(=O)NO)ccc21 [Compound 106]	1000 to 10000	< 100
CN(Cc1cc2nc(-c3cnc(C(N)=O)nc3)nc(N3CCOCC3)c2s1)c1ncc(C(=O)NO)cn1 [Compound 122]	< 100	< 100
CN(C)c1nc(-c2cccc3[nH]ncc23)nc2cc(CN(C)c3ncc(C(=O)NO)cn3)sc12 [Compound 159]	< 100	1000 to 10000
COCCNc1nc(-c2cccc3[nH]ncc23)nc2cc(CN(C)c3ncc(C(=O)NO)cn3)sc12 [Compound 160]	< 100	> 10000
CN(Cc1cc2nc(-c3cccc4[nH]ncc34)nc(NCCO)c2s1)c1ncc(C(=O)NO)cn1 [Compound 161]	< 100	100 to 1000
CN(Cc1cc2nc(-c3cccc4[nH]ncc34)nc(N(CCO)CCO)c2s1)c1ncc(C(=O)NO)cn1 [Compound 162]	< 100	1000 to 10000
COCCN(CCOC)c1nc(-c2cccc3[nH]ncc23)nc2cc(CN(C)c3ncc(C(=O)NO)cn3)sc12 [Compound 163]	< 100	100 to 1000
CN(Cc1cc2nc(-c3ccc4c(c3)OCCN4)nc(N3CCOCC3)c2s1)c1ncc(C(=O)NO)cn1 [Compound 191]	< 100	–
CC(c1cc2nc(-c3ccc(N)cc3)nc(N3CCOCC3)c2s1)N(C)c1ncc(C(=O)NO)cn1 (centres unmarked) [Compound 214]	< 100	–
CN(c1ncc(C(=O)NO)cn1)C(C)(C)c1cc2nc(-c3ccc(N)cc3)nc(N3CCOCC3)c2s1 [Compound 270]	< 100	–

Further lines, results first:

IC50 [1] [nM]	IC50 (PI3Kα (p110α/p85α)) [nM]	SMILES
> 10000	< 100	O=C(NO)c1cc2nc(-c3cccc4[nH]ncc34)nc(N3CCOCC3)c2s1 [Compound 45]
< 100	< 100	O=C(NO)c1cnc(N2CCC(CNc3cc4nc(-c5cccc6[nH]ncc56)nc(N5CCOCC5)c4s3)CC2)nc1 [Compound 48]
100 to 1000	< 100	CN(CC1CCN(c2ncc(C(=O)NO)cn2)CC1)c1cc2nc(-c3cccc4[nH]ncc34)nc(N3CCOCC3)c2s1 [Compound 49]
< 100	> 10000	CN(Cc1cc2nc(-c3cccc4[nH]ncc34)nc(N3CCNCC3)c2s1)c1ncc(C(=O)NO)cn1 [Compound 60]
< 100	> 10000	CN1CCN(c2nc(-c3cccc4[nH]ncc34)nc3cc(CN(C)c4ncc(C(=O)NO)cn4)sc23)CC1 [Compound 61]
< 100	> 10000	CC(=O)N1CCN(c2nc(-c3cccc4[nH]ncc34)nc3cc(CN(C)c4ncc(C(=O)NO)cn4)sc23)CC1 [Compound 62]
< 100	> 10000	CN(Cc1cc2nc(-c3cccc4[nH]ncc34)nc(N3CCN(CCO)CC3)c2s1)c1ncc(C(=O)NO)cn1 [Compound 63]
< 100	100 to 1000	CC1CN(c2nc(-c3cccc4[nH]ncc34)nc3cc(CN(C)c4ncc(C(=O)NO)cn4)sc23)CC(C)O1 (centres unmarked) [Compound 65]
< 100	100 to 1000	CC1COCC(C)N1c1nc(-c2cccc3[nH]ncc23)nc2cc(CN(C)c3ncc(C(=O)NO)cn3)sc12 (centres unmarked) [Compound 66]
< 100	100 to 1000	CN(Cc1cc2nc(-c3cccc4[nH]ncc34)nc(N3CCCCC3)c2s1)c1ncc(C(=O)NO)cn1 [Compound 67]
< 100	100 to 1000	Cc1c(CN(C)c2ncc(C(=O)NO)cn2)sc2c(N3CCOCC3)nc(-c3cccc4[nH]ncc34)nc12 [Compound 68]
< 100	100 to 1000	CC(C)(Nc1ncc(C(=O)NO)cn1)c1cc2nc(-c3cccc4[nH]ncc34)nc(N3CCOCC3)c2s1 [Compound 71]
< 100	100 to 1000	O=C(NO)c1cnc(NCc2cc3cc(-c4cccc5[nH]ncc45)nc(N4CCOCC4)c3s2)nc1 [Compound 73]
< 100	100 to 1000	CN(Cc1cc2cc(-c3cccc4[nH]ncc34)nc(N3CCOCC3)c2s1)c1ncc(C(=O)NO)cn1 [Compound 74]
100 to 1000	< 100	CN(Cc1cc2nc(-c3cccc4[nH]ncc34)nc(N3CCOCC3)c2s1)c1ncc(/C=C/C(=O)NO)cn1 [Compound 75]
< 100	< 100	CN(Cc1cc2nc(-c3cccc4[nH]ncc34)nc(N3CCOCC3)c2s1)c1ccc(C(=O)NO)cc1 [Compound 79]
100 to 1000	< 100	O=C(O)CN(Cc1cc2nc(-c3cccc4[nH]ncc34)nc(N3CCOCC3)c2s1)c1ncc(C(=O)NO)cn1 [Compound 88]
< 100	< 100	COCCN(Cc1cc2nc(-c3cccc4[nH]ncc34)nc(N3CCOCC3)c2s1)c1ncc(C(=O)NO)cn1 [Compound 90, 2-(((2-(1H-indazol-4-yl)-4-morpholinothieno[3,2-d]pyrimidin-6-yl)methyl)(2-methoxyethyl)amino)-N-hydroxypyrimidine-5-carboxamide]
< 100	< 100	O=C(NO)c1cnc(N(CCCO)Cc2cc3nc(-c4cccc5[nH]ncc45)nc(N4CCOCC4)c3s2)nc1 [Compound 91]
< 100	< 100	CCN(Cc1cc2nc(-c3cccc4[nH]ncc34)nc(N3CCOCC3)c2s1)c1ncc(C(=O)NO)cn1 [Compound 92]
< 100	< 100	NCCN(Cc1cc2nc(-c3cccc4[nH]ncc34)nc(N3CCOCC3)c2s1)c1ncc(C(=O)NO)cn1 [Compound 94]
100 to 1000	< 100	CN(C)CCN(Cc1cc2nc(-c3cccc4[nH]ncc34)nc(N3CCOCC3)c2s1)c1ncc(C(=O)NO)cn1 [Compound 95]
< 100	< 100	CC(=O)NCCN(Cc1cc2nc(-c3cccc4[nH]ncc34)nc(N3CCOCC3)c2s1)c1ncc(C(=O)NO)cn1 [Compound 96]
< 100	< 100	NC(=O)CN(Cc1cc2nc(-c3cccc4[nH]ncc34)nc(N3CCOCC3)c2s1)c1ncc(C(=O)NO)cn1 [Compound 97]
< 100	< 100	C#CCCN(Cc1cc2nc(-c3cccc4[nH]ncc34)nc(N3CCOCC3)c2s1)c1ncc(C(=O)NO)cn1 [Compound 98]
< 100	> 10000	CCN(CC)c1nc(-c2cccc3[nH]ncc23)nc2cc(CN(C)c3ncc(C(=O)NO)cn3)sc12 [Compound 158]
–	< 100	CN(Cc1cc2nc(-c3cccc4[nH]c(=O)[nH]c34)nc(N3CCOCC3)c2s1)c1ncc(C(=O)NO)cn1 [Compound 316]
